# Species: Rattus norvegicus
# Test: DrugMatrix - Regimen: Daily Repeat
# Type: toxicity, organism-based, Sprague-Dawley
# Set-up: regimen Daily Repeat, gender Male, age 6-8 weeks
# Conditions: in vivo, sc, 0 mg/kg, route subcutaneous, dose level Control, […]; for ABSOLUTE BASOPHIL / ABSOLUTE EOSINOPHIL / ABSOLUTE LYMPHOCYTE / ABSOLUTE MONOCYTE / ABSOLUTE SEGMENTED NEUTROPHIL / BASOPHIL / EOSINOPHIL / ERYTHROCYTE COUNT / HEMATOCRIT / HEMOGLOBIN / LEUKOCYTE COUNT / LYMPHOCYTE / MEAN CORPUSCULAR HEMOGLOBIN / MEAN CORPUSCULAR HEMOGLOBIN CONCENTRATION / MEAN CORPUSCULAR VOLUME / MONOCYTE / NEUTROPHIL / NUCLEATED RED BLOOD CELLS / PLATELET COUNT: tissue Blood; for ALANINE AMINOTRANSFERASE / ALBUMIN / ALKALINE PHOSPHATASE / ASPARTATE AMINOTRANSFERASE / BLOOD UREA NITROGEN / CARBON DIOXIDE / CHLORIDE / CHOLESTEROL / CREATINE PHOSPHOKINASE / CREATININE / GLUCOSE / LACTATE DEHYDROGENASE / LIPASE / PHOSPHORUS / POTASSIUM / SODIUM / TOTAL BILIRUBIN / TOTAL PROTEIN / URIC ACID: tissue Plasma
compound,measurement,setting,value
Cc1cc(O)cc(C)c1Cl [CHLOROXYLENOL],ABSOLUTE BASOPHIL,"72 h, time 3 day",0 CELLS/uL
same,ABSOLUTE EOSINOPHIL,"72 h, time 3 day",92.33 CELLS/uL
same,ABSOLUTE LYMPHOCYTE,"72 h, time 3 day",12247.5 CELLS/uL
same,ABSOLUTE MONOCYTE,"72 h, time 3 day",389.67 CELLS/uL
same,ABSOLUTE SEGMENTED NEUTROPHIL,"72 h, time 3 day",1320.5 CELLS/uL
same,BASOPHIL,"72 h, time 3 day",0%
same,EOSINOPHIL,"72 h, time 3 day",0.67%
same,ERYTHROCYTE COUNT,"72 h, time 3 day",5.45 x10E6/uL
same,HEMATOCRIT,"72 h, time 3 day",34.85%
same,HEMOGLOBIN,"72 h, time 3 day",12.97 G/DL
same,LEUKOCYTE COUNT,"72 h, time 3 day",14.05 x10E3/uL
same,LYMPHOCYTE,"72 h, time 3 day",87.33%
same,MEAN CORPUSCULAR HEMOGLOBIN,"72 h, time 3 day",23.78 pg
same,MEAN CORPUSCULAR HEMOGLOBIN CONCENTRATION,"72 h, time 3 day",37.22 G/DL
same,MEAN CORPUSCULAR VOLUME,"72 h, time 3 day",63.93 fL
same,MONOCYTE,"72 h, time 3 day",2.67%
same,NEUTROPHIL,"72 h, time 3 day",9.33%
same,NUCLEATED RED BLOOD CELLS,"72 h, time 3 day",0 /100WBC
same,PLATELET COUNT,"72 h, time 3 day",1174 x10E3/uL
same,ALANINE AMINOTRANSFERASE,"72 h, time 3 day",48.83 u/L
same,ALBUMIN,"72 h, time 3 day",4.23 G/DL
same,ALKALINE PHOSPHATASE,"72 h, time 3 day",351.5 u/L
same,ASPARTATE AMINOTRANSFERASE,"72 h, time 3 day",90 u/L
same,BLOOD UREA NITROGEN,"72 h, time 3 day",15.33 mg/dL
same,CARBON DIOXIDE,"72 h, time 3 day",23 mmol/L
same,CHLORIDE,"72 h, time 3 day",103.5 MEQ/L
same,CHOLESTEROL,"72 h, time 3 day",70.5 mg/dL
same,CREATINE PHOSPHOKINASE,"72 h, time 3 day",651.83 u/L
same,CREATININE,"72 h, time 3 day",0.22 mg/dL
same,GLUCOSE,"72 h, time 3 day",180.67 mg/dL
same,LACTATE DEHYDROGENASE,"72 h, time 3 day",165 u/L
same,LIPASE,"72 h, time 3 day",9.33 u/L
same,PHOSPHORUS,"72 h, time 3 day",12.03 mg/dL
same,POTASSIUM,"72 h, time 3 day",6.17 MEQ/L
same,SODIUM,"72 h, time 3 day",142.62 MEQ/L
same,TOTAL BILIRUBIN,"72 h, time 3 day",0.2 mg/dL
same,TOTAL PROTEIN,"72 h, time 3 day",5.73 G/DL
same,URIC ACID,"72 h, time 3 day",1.77 mg/dL
same,ABSOLUTE BASOPHIL,"120 h, time 5 day",0 CELLS/uL
same,ABSOLUTE EOSINOPHIL,"120 h, time 5 day",0 CELLS/uL
same,ABSOLUTE LYMPHOCYTE,"120 h, time 5 day",12736.67 CELLS/uL
same,ABSOLUTE MONOCYTE,"120 h, time 5 day",253.5 CELLS/uL
same,ABSOLUTE SEGMENTED NEUTROPHIL,"120 h, time 5 day",1193.17 CELLS/uL
same,BASOPHIL,"120 h, time 5 day",0%
same,EOSINOPHIL,"120 h, time 5 day",0%
same,ERYTHROCYTE COUNT,"120 h, time 5 day",5.72 x10E6/uL
same,HEMATOCRIT,"120 h, time 5 day",36.05%
same,HEMOGLOBIN,"120 h, time 5 day",13.62 G/DL
same,LEUKOCYTE COUNT,"120 h, time 5 day",14.18 x10E3/uL
same,LYMPHOCYTE,"120 h, time 5 day",89.33%
same,MEAN CORPUSCULAR HEMOGLOBIN,"120 h, time 5 day",23.83 pg
same,MEAN CORPUSCULAR HEMOGLOBIN CONCENTRATION,"120 h, time 5 day",37.8 G/DL
same,MEAN CORPUSCULAR VOLUME,"120 h, time 5 day",63.05 fL
same,MONOCYTE,"120 h, time 5 day",1.83%
same,NEUTROPHIL,"120 h, time 5 day",8.83%
same,NUCLEATED RED BLOOD CELLS,"120 h, time 5 day",0 /100WBC
same,PLATELET COUNT,"120 h, time 5 day",1322.17 x10E3/uL
same,ALANINE AMINOTRANSFERASE,"120 h, time 5 day",48.83 u/L
same,ALBUMIN,"120 h, time 5 day",4.27 G/DL
same,ALKALINE PHOSPHATASE,"120 h, time 5 day",295.17 u/L
same,ASPARTATE AMINOTRANSFERASE,"120 h, time 5 day",75.83 u/L
same,BLOOD UREA NITROGEN,"120 h, time 5 day",15.5 mg/dL
same,CARBON DIOXIDE,"120 h, time 5 day",30.5 mmol/L
same,CHLORIDE,"120 h, time 5 day",102.33 MEQ/L
same,CHOLESTEROL,"120 h, time 5 day",76.17 mg/dL
same,CREATINE PHOSPHOKINASE,"120 h, time 5 day",205.5 u/L
same,CREATININE,"120 h, time 5 day",0.2 mg/dL
same,GLUCOSE,"120 h, time 5 day",149.67 mg/dL
same,LACTATE DEHYDROGENASE,"120 h, time 5 day",124.5 u/L
same,LIPASE,"120 h, time 5 day",10 u/L
same,PHOSPHORUS,"120 h, time 5 day",10.93 mg/dL
same,POTASSIUM,"120 h, time 5 day",6.59 MEQ/L
same,SODIUM,"120 h, time 5 day",143.1 MEQ/L
same,TOTAL BILIRUBIN,"120 h, time 5 day",0.2 mg/dL
same,TOTAL PROTEIN,"120 h, time 5 day",6.05 G/DL
same,URIC ACID,"120 h, time 5 day",1.45 mg/dL
